Converted amounts (≈) assume the structure as drawn.
Legend:
[1] = system: quisqualic acid stimulated ^3 H-GABA-efflux from cultured cortical neurones; experiment: Antagonism of quisqualic acid stimulated ^3 H-GABA efflux from cultured cortical neurones (release experiments); format: cell-based, mouse; conditions: Rattus norvegicus, Cortical neurone; concentration which reduces the rate of quisqualic acid stimulated ^3 H-GABA efflux by 50%; 37° C., pH 7.4
[2] = biological target: quisqualate type receptors; experiment: ^3 H-AMPA binding: displacement of ^3 H-AMPA from quisqualate type receptors in cerebral cortical membrane homogenate; set-up: species or system rat; conditions: displacement of 50% of specific ^3 H-AMPA binding; 5 nM ^3 H-AMPA, 0° C., 30 min, pH 7.1
Method: The pharmacological properties of the compounds of the present invention can be illustrated by determining their capability for displacing radioactively labelled 2-amino-3-hydroxy-5-methyl-4-isoxazolepropionic acid (AMPA) from the quisqualate type receptors.
The displacement activity of the compounds may be shown by determining the IC50 value which represents the concentration (μg/ml) which causes a displacement of 50% of the specific binding of ^3 H-AMPA.
500 μl of thawed rat cerebral cortical membrane homogenate in Tris-HCl (30 mM), CaCl2 (2.5 mM) and KSCN (100 mM) pH 7.1 were incubated at 0° C. for 30 min. with 25 μl ^3 H-AMPA (5 nM final concentration) and the test compound and buffer. Nonspecific binding was determined by incubation with L-glutamic acid (600 μM final concentration). The binding reaction was terminated by adding 5 ml of ice-cold buffer followed by filtration through Whatman GF/C glass fibre filters and 2×5 ml wash with ice-cold buffer. Bound radioactivity was measured by scintillation counting. IC50 was determined by Hill analysis of at least four concentrations of test compound.

Compound | EC50 [1] [µg/mL] | IC50 [2] [µg/mL]
Cn1c(=O)c(=O)[nH]c2cc([N+](=O)[O-])ccc21 [Compound 7, 1-Methyl-6-nitroquinoxaline-2,3(1H,4H)-dione] | 2.1 (≈ 9.49 µM) | 0.96 (≈ 4.34 µM)
Cn1c(=O)c(=O)[nH]c2c3ccccc3ccc21 [Compound 13, 4-Methylbenzo[f]quinoxaline-2,3(1H,4H)-dione] | 2.1 (≈ 9.28 µM) | 0.42 (≈ 1.86 µM)
O=c1[nH]c2cc([N+](=O)[O-])c(Cl)cc2n(C2CCCCC2)c1=O [Compound 16, 1-Cyclohexyl-6-nitro-7-chlorquinoxaline-2,3(1H,4H)-dione] |  | 0.69 (≈ 2.13 µM)
O=c1[nH]c2c3ccccc3ccc2n(C2CCCCC2)c1=O [Compound 27k, 4-Cyclohexylbenzo[f]quinoxaline-2,3(1H,4H)-dione] | > 4 | 0.61 (≈ 2.07 µM)
